Measurements as given in publication PMC2063322, “Phase I trial and pharmacokinetics of the tubulin inhibitor 1069C85--a synthetic agent binding at the colchicine site designed to overcome multidrug resistance” (British Journal of Cancer, 1997).
Several values for one entry are separate records, joined by “and”; a condition that tells them apart may be missing. Equal entries are not always repeated.

Tests used:
[1] = design: method as in data on file Glaxo/Wellcome, 1990; conditions: monkey, p.o.; ref data on file Glaxo/Wellcome, 1990; cited from earlier work
[2] = Phase I pharmacokinetics: plasma 1069C85 by HPLC after single oral dose; design: Cmax of the patient experiencing grade 3 neurotoxicity: unit not given beside the values
Method: British Joumal of Cancer (1997) 75(4), 608-613 ? […] A phase I study was performed using a single oral dose every 3 weeks, administered as a suspension reconstituted in 0.1% Tween 80 and 0.9% saline. The starting dose was 2.8 mg m-2, and dose doubling was permitted until the area under curve (AUC) was ?40% of that at the mouse LD10; thereafter, a modified Fibonacci scheme was used. […] Keywords: tubulin; multidrug resistance; neurotoxicity The tubulin-binding agent 1069C85 was developed from a struc- ture activity investigation of tubulin inhibitors binding at the colchicine site on tubulin. […] No studies were performed using human tumour xenografts. […] METHODS Formulation and drug administration A formulation was developed at the Cancer Research Campaign Formulation Unit. The drug was dispensed into vials as a dry powder and reconstituted as a fine suspension by administration of 0.9% saline containing 0.1% Tween 80 (polysorbate) with vigorous mixing. Immediately before oral administration, the drug suspension was mixed with orange juice both to disguise any possible unpleasant taste and to help ensure complete ingestion.

[3] = micronized, 25 mg m-2, mean (SD), 5 patients
[4] = micronized, 35.8 mg m-2, 1 patient
[5] = micronized, 50 mg m-2, mean, 2 patients
[6] = micronized, 100 mg m-2, mean, 2 patients previously treated at 200 mg m-2 standard formulation
[7] = non-micronized, 2.8 mg m-2, mean (SD), 3 patients
[8] = non-micronized, 5.6 mg m-2, mean, 2 patients
[9] = non-micronized, 11.2 mg m-2, mean (SD), 4 patients
[10] = non-micronized, 22.4 mg m-2, mean (SD), 3 patients
[11] = non-micronized, 35.8 mg m-2, mean (SD), 4 patients
[12] = non-micronized, 50 mg m-2, mean, 2 patients
[13] = non-micronized, 100 mg m-2, mean (SD), 4 patients
[14] = non-micronized, 200 mg m-2, mean (SD), 4 patients
[15] = single patient (no. 39), 50 mg m-2 micronized
[16] = single patient, 100 mg m-2 micronized, ataxia, confusion, hallucinations, coma
[17] = single patient, 100 mg m-2 micronized, vivid dreams, disturbed sleep
[18] = single patient, 200 mg m-2 non-micronized, ataxia, confusion, disorientation
[19] = single patient, 200 mg m-2 non-micronized, visual disturbance, flashing lights

Structure (SMILES): COC(=O)Nc1cn2nc(OCc3cc(OC)c(OC)c(OC)c3)ccc2n1 [1069C85]
- plasma elimination half-life following oral administration [1]: ~2 h
- Cmax of the patient experiencing grade 3 neurotoxicity ([2]; 200 mg m-2, non-micronized): 159
- AUC [2, 3]: 1061.8 (?269.1) gg 1-1 h-1
- Cmax [2, 3]: 58.6 (?19.5) hg 1-'
- Tmax [2, 3]: 9.8 (?3.2) h
- t1/2 [2, 3]: 38.9 (?36.9) h
- AUC [2, 4]: 1262.3 gg 1-1 h-1
- Cmax [2, 4]: 70.7 hg 1-'
- Tmax [2, 4]: 6.3 h
- t1/2 [2, 4]: 16.3 h
- AUC [2, 5]: 3786.9 gg 1-1 h-1
- Cmax [2, 5]: 198.9 hg 1-'
- Tmax [2, 5]: 10.6 h
- t1/2 [2, 5]: 24 h
- AUC [2, 6]: 15011.7 gg 1-1 h-1
- Cmax [2, 6]: 292.3 hg 1-'
- Tmax [2, 6]: 6.1 h
- t1/2 [2, 6]: 24.7 h
- time after dosing at which drug was still detectable in the cerebrospinal fluid ([2]; most severely affected patient, 100 mg m-2 micronized): 8 days and 7 days
- terminal half-life (range between patients) ([2]; non-micronized formulation, one-compartment model): 7 to 107 h
- Cmax [2, 7]: 7.3 (?3.4) hg 1-'
- Tmax [2, 7]: 10 (?7.1) h
- t1/2 [2, 7]: 29 (+22) h
- AUC ([2]; non-micronized, 2.8 mg m-2 single oral dose, mean (SD), 3 patients, AUC to 24 h): 69.9 (?30.2) gg 1-1 h-1
- AUC [2, 8]: 209.7 gg 1-1 h-1
- Cmax [2, 8]: 13 hg 1-'
- Tmax [2, 8]: 9.5 h
- t1/2 [2, 8]: 39.5 h
- AUC [2, 9]: 371.5 (?178.7) gg 1-1 h-1
- Cmax [2, 9]: 21.7 (?11.3) hg 1-'
- Tmax [2, 9]: 5.3 (?1.2) h
- t1/2 [2, 9]: 23.2 (?6.9) h
- AUC [2, 10]: 476.4 (?206.8) gg 1-1 h-1
- Cmax [2, 10]: 25.9 (?11.4) hg 1-'
- Tmax [2, 10]: 7.6 (?1.9) h
- t1/2 [2, 10]: 35.7 (?15.1) h
- AUC [2, 11]: 507.5 (?153.6) gg 1-1 h-1
- Cmax [2, 11]: 33 (?13.9) hg 1-'
- Tmax [2, 11]: 7.8 (?3.4) h
- t1/2 [2, 11]: 22.9 (?19.5) h
- AUC [2, 12]: 423.3 gg 1-1 h-1
- Cmax [2, 12]: 22 hg 1-'
- Tmax [2, 12]: 7.2 h
- t1/2 [2, 12]: 73.5 h
- AUC [2, 13]: 844.7 (?314.7) gg 1-1 h-1
- Cmax [2, 13]: 48.5 (?25) hg 1-'
- Tmax [2, 13]: 4.8 (?1.1) h
- t1/2 [2, 13]: 23 (?4.3) h
- AUC [2, 14]: 3011 (?1771.4) gg 1-1 h-1
- Cmax [2, 14]: 99.8 (?36.9) hg 1-'
- Tmax [2, 14]: 8.8 (?1.9) h
- t1/2 [2, 14]: 18.2 (?3) h
- terminal elimination half-life (range) ([2]; original formulation, single oral dose every 3 weeks, patients): 18 to 73.5 h
- AUC [2, 15]: 16.4 ItM h
- Cmax [2, 15]: 327 .g l-i
- AUC [2, 16]: 23.4 ItM h
- Cmax [2, 16]: 495 .g l-i
- AUC [2, 17]: 53.9 ItM h
- Cmax [2, 17]: 90 .g l-i
- AUC [2, 18]: 15.2 ItM h
- Cmax [2, 18]: 159 .g l-i
- AUC [2, 19]: 5.1 ItM h
- Cmax [2, 19]: 100 .g l-i
